IC50 data for 27 compounds are collected here from US8658646B2, “Pyrrolopyrazine kinase inhibitors” (Hoffmann-LaRoche Inc., priority 2011, dated 2014).

For test [1], the target named is T1, recombinant human SYK360-635 (Homo sapiens, UniProt P43405).
T1 construct: made in house
Kind of test: Determination of IC50 of Spleen Tyrosine Kinase (SYK) inhibition, 33P ATP filtration assay. It is filed as biochemical. Conditions: SYK aa 360-635 0.5 nM; ATP 20 μM, peptide 5 μM, 0.1% BSA; read-out: SYK_ENZYME_FILTRATION/v1, BSA.

Test [2] has as its target T2, JAK3: Recombinant human kinase domain (Homo sapiens, UniProt P52333).
T2 construct: JAK3: Recombinant human kinase domain from Millipore (Cat #14-629) or prepared; purchased Millipore 14-629
The test is described as follows: Determination of IC50 of Janus Kinase (JAK) inhibition, radioactive end-point 33P-ATP assay, JAK3. In kind it is biochemical. Conditions: ATP 1.5 uM, peptide 50 uM, 20 minutes, read-out: JAK3-INHIB-DR/v1~NO ADDITIVE~Enzyme_Conc = 100.

T2 sequence (P52333 822-1111 limits assumed): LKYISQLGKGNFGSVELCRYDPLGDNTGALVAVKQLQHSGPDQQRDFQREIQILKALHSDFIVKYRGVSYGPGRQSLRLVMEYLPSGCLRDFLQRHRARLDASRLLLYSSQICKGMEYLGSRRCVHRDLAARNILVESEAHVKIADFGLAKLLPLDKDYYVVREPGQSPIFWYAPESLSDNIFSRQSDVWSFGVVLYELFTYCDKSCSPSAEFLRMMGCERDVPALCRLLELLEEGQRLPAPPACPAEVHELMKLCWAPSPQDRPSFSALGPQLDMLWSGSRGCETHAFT

In the case of `C[C@@H](NC(=O)c1c[nH]c2ncc(-c3nn(C)c4cc(F)ccc34)nc12)C1=NCCO1` [Example I-60, 2-(6-Fluoro-1-methyl-1H-indazol-3-yl)-5H-pyrrolo[2,3-b]pyrazine-7-carboxylic acid [(R)-1-(4,5-dihydro-oxazol-2-yl)-ethyl]-amide], the IC50 turned out to be 31.9 nM in test [1] and 27.4 nM in test [2].
For `CC(NC(=O)c1c[nH]c2ncc(-c3nn(C)c4cc(F)ccc34)nc12)[C@H]1C[C@@H](O)C1` (stereo partly drawn) [Example I-73, 2-(6-Fluoro-1-methyl-1H-indazol-3-yl)-5H-pyrrolo[2,3-b]pyrazine-7-carboxylic acid [1-(cis-3-hydroxy-cyclobutyl)-ethyl]-amide], in that order: 9.95 nM and 19.7 nM.
For `CC(NC(=O)c1c[nH]c2ncc(-c3nn(C)c4cc(F)ccc34)nc12)[C@H]1C[C@H](O)C1` (stereo partly drawn) [Example I-75, 2-(6-Fluoro-1-methyl-1H-indazol-3-yl)-5H-pyrrolo[2,3-b]pyrazine-7-carboxylic acid [1-(trans-3-hydroxy-cyclobutyl)-ethyl]-amide], in that order: 9.2 nM and 20.6 nM.
For `C[C@@H](NC(=O)c1c[nH]c2ncc(-c3nccc4ccccc34)nc12)C(=O)N1CC(C#N)C1` [Example I-77, 2-Isoquinolin-1-yl-5H-pyrrolo[2,3-b]pyrazine-7-carboxylic acid [(R)-2-(3-cyano-azetidin-1-yl)-1-methyl-2-oxo-ethyl]-amide] the same measures were more than 10000 nM and 53.8 nM.
Turning to `C[C@@H](NC(=O)c1c[nH]c2ncc(-c3nn(C)c4cc(F)ccc34)nc12)c1ccccn1` [Example I-78, 2-(6-Fluoro-1-methyl-1H-indazol-3-yl)-5H-pyrrolo[2,3-b]pyrazine-7-carboxylic acid ((R)-1-pyridin-2-yl-ethyl)-amide], the IC50 in test [1] was 30.2 nM; in test [2], 14.2 nM.
For `C[C@H](NC(=O)c1c[nH]c2ncc(-c3nn(C)c4cc(Cl)ccc34)nc12)C(C)(C)C#N` [Example I-80, 2-(6-Chloro-1-methyl-1H-indazol-3-yl)-5H-pyrrolo[2,3-b]pyrazine-7-carboxylic acid ((S)-2-cyano-1,2,2-trimethyl-ethyl)-amide], in that order: 29.1 nM and 12.6 nM.
For `CCn1nc(-c2cnc3[nH]cc(C(=O)N[C@H](C)C(=O)N4CC(C#N)C4)c3n2)c2ccc(Cl)cc21` [Example I-85, 2-(6-Chloro-1-ethyl-1H-indazol-3-yl)-5H-pyrrolo[2,3-b]pyrazine-7-carboxylic acid [(R)-2-(3-cyano-azetidin-1-yl)-1-methyl-2-oxo-ethyl]-amide] the same measures were 33.4 nM and 0.9 nM.
For `C[C@@H](NC(=O)c1c[nH]c2ncc(-c3nn(C)c4c(F)c(F)ccc34)nc12)C(=O)N1CC(C#N)C1` [Example I-86, 2-(6,7-Difluoro-1-methyl-1H-indazol-3-yl)-5H-pyrrolo[2,3-b]pyrazine-7-carboxylic acid [(R)-2-(3-cyano-azetidin-1-yl)-1-methyl-2-oxo-ethyl]-amide], in that order: 109 nM and 0.745 nM.
As for `CCc1ccc2c(-c3cnc4[nH]cc(C(=O)N[C@H](C)C(=O)N5CC(C#N)C5)c4n3)nn(C)c2c1` [Example I-87], the IC50 came to 158 nM in test [1] and 1.78 nM in test [2].
Consider `CC(C)NC(=O)c1c[nH]c2ncc(-c3nn(C)c4cc(F)cc(F)c34)nc12` [Example I-101, 2-(4,6-Difluoro-1-methyl-1H-indazol-3-yl)-5H-pyrrolo[2,3-b]pyrazine-7-carboxylic acid isopropylamide], for which the IC50 in test [1] is 13.8 nM; in test [2] it was 10.8 nM.
For `CC(C)NC(=O)c1c[nH]c2ncc(-c3nn(C4COC4)c4cc(F)ccc34)nc12` [Example I-102, 2-(6-Fluoro-1-oxetan-3-yl-1H-indazol-3-yl)-5H-pyrrolo[2,3-b]pyrazine-7-carboxylic acid isopropylamide] the same measures were 18.7 nM and 1.63 nM.
Take `COC[C@H](C)NC(=O)c1c[nH]c2ncc(-c3nn(C4COC4)c4cc(F)ccc34)nc12` [Example I-103, 2-(6-Fluoro-1-oxetan-3-yl-1H-indazol-3-yl)-5H-pyrrolo[2,3-b]pyrazine-7-carboxylic acid ((S)-2-methoxy-1-methyl-ethyl)-amide]: the IC50 in test [1] amounted to 43.8 nM; in test [2], 0.26 nM.
For `CC(C)NC(=O)c1c[nH]c2ncc(-c3nn(C4CNC4)c4cc(F)ccc34)nc12` [Example I-104, 2-(1-Azetidin-3-yl-6-fluoro-1H-indazol-3-yl)-5H-pyrrolo[2,3-b]pyrazine-7-carboxylic acid isopropylamide] the same measures were 41 nM and 5.68 nM.
For `Cn1nc(-c2cnc3[nH]cc(C(=O)NC4CCOC4)c3n2)c2ccc(Cl)cc21` (stereo not drawn) [Example I-107, 2-(6-Chloro-1-methyl-1H-indazol-3-yl)-5H-pyrrolo[2,3-b]pyrazine-7-carboxylic acid (tetrahydro-furan-3-yl)-amide], in that order: 20.8 nM and 11.5 nM.
For `Cn1nc(-c2cnc3[nH]cc(C(=O)NC4CCCCC4)c3n2)c2ccc(Cl)cc21` [Example I-110, 2-(6-Chloro-1-methyl-1H-indazol-3-yl)-5H-pyrrolo[2,3-b]pyrazine-7-carboxylic acid cyclohexylamide], in that order: 249 nM and 7.3 nM.
Turning to `Cn1nc(-c2cnc3[nH]cc(C(=O)NC4CCCOC4)c3n2)c2ccc(Cl)cc21` (stereo not drawn) [Example I-111, 2-(6-Chloro-1-methyl-1H-indazol-3-yl)-5H-pyrrolo[2,3-b]pyrazine-7-carboxylic acid (tetrahydro-pyran-3-yl)-amide], the IC50 turned out to be 21.7 nM in test [1] and 3.97 nM in test [2].
In the case of `Cn1nc(-c2cnc3[nH]cc(C(=O)NC4CCOCC4)c3n2)c2ccc(Cl)cc21` [Example I-112, 2-(6-Chloro-1-methyl-1H-indazol-3-yl)-5H-pyrrolo[2,3-b]pyrazine-7-carboxylic acid (tetrahydro-pyran-4-yl)-amide], the figures for the IC50 in test [1] and in test [2] were 33.3 nM and 14.6 nM, respectively.
For `Cn1nc(-c2cnc3[nH]cc(C(=O)NC4CCS(=O)(=O)C4)c3n2)c2ccc(Cl)cc21` (stereo not drawn) [Example I-113, 2-(6-Chloro-1-methyl-1H-indazol-3-yl)-5H-pyrrolo[2,3-b]pyrazine-7-carboxylic acid (1,1-dioxo-tetrahydro-1λ6-thiophen-3-yl)-amide], in that order: 198 nM and 256 nM.
For `Cn1nc(-c2cnc3[nH]cc(C(=O)NCC(C)(C)CO)c3n2)c2ccc(F)cc21` [Example I-114, 2-(6-Fluoro-1-methyl-1H-indazol-3-yl)-5H-pyrrolo[2,3-b]pyrazine-7-carboxylic acid (3-hydroxy-2,2-dimethyl-propyl)-amide], in that order: 12.1 nM and 12.8 nM.
For `Cn1nc(-c2cnc3[nH]cc(C(=O)NCC(C)(C)C)c3n2)c2ccc(F)cc21` [Example I-115, 2-(6-Fluoro-1-methyl-1H-indazol-3-yl)-5H-pyrrolo[2,3-b]pyrazine-7-carboxylic acid (2,2-dimethyl-propyl)-amide] the same measures were 19.3 nM and 8.23 nM.
`CC(C)CNC(=O)c1c[nH]c2ncc(-c3nn(C)c4cc(F)ccc34)nc12` [Example I-116, 2-(6-Fluoro-1-methyl-1H-indazol-3-yl)-5H-pyrrolo[2,3-b]pyrazine-7-carboxylic acid isobutyl-amide]: the IC50 came out at 17.6 nM in test [1] and 9.44 nM in test [2].
For `C[C@H](CN1CC[C@@H](F)C1)NC(=O)c1c[nH]c2ncc(-c3nn(C)c4cc(Cl)ccc34)nc12` [Example I-121, 2-(6-Chloro-1-methyl-1H-indazol-3-yl)-5H-pyrrolo[2,3-b]pyrazine-7-carboxylic acid [(R)-2-((R)-3-fluoro-pyrrolidin-1-yl)-1-methyl-ethyl]-amide], in that order: 372 nM and 124 nM.
For `C[C@H](CN1CC[C@H](F)C1)NC(=O)c1c[nH]c2ncc(-c3nn(C)c4cc(Cl)ccc34)nc12` [Example I-122, 2-(6-Chloro-1-methyl-1H-indazol-3-yl)-5H-pyrrolo[2,3-b]pyrazine-7-carboxylic acid [(R)-2-((S)-3-fluoro-pyrrolidin-1-yl)-1-methyl-ethyl]-amide] the same measures were 284 nM and 82.4 nM.
For `C[C@H](CN1CC(F)C1)NC(=O)c1c[nH]c2ncc(-c3nn(C)c4cc(Cl)ccc34)nc12` [Example I-123, 2-(6-Chloro-1-methyl-1H-indazol-3-yl)-5H-pyrrolo[2,3-b]pyrazine-7-carboxylic acid [(R)-2-(3-fluoro-azetidin-1-yl)-1-methyl-ethyl]-amide], in that order: 144 nM and 68.6 nM.
In the case of `CC(CN1CCC(C#N)C1)NC(=O)c1c[nH]c2ncc(-c3nn(C)c4cc(Cl)ccc34)nc12` (stereo not drawn) [Example I-125, 2-(6-Chloro-1-methyl-1H-indazol-3-yl)-5H-pyrrolo[2,3-b]pyrazine-7-carboxylic acid [2-(3-cyano-pyrrolidin-1-yl)-1-methyl-ethyl]-amide], the IC50 in test [1] was determined as 83.5 nM; in test [2], 29.3 nM.
For `CC(C)NC(=O)c1c[nH]c2ncc(-c3nn(C)c4cc(Cl)cc(F)c34)nc12` [Example I-127, 2-(6-Chloro-4-fluoro-1-methyl-1H-indazol-3-yl)-5H-pyrrolo[2,3-b]pyrazine-7-carboxylic acid isopropylamide] the same measures were 22.6 nM and 11 nM.
For the compound `CC(C)NC(=O)c1c[nH]c2ncc(-c3nn(CCN(C)C)c4cc(Cl)cc(F)c34)nc12` [Example I-128, 2-[6-Chloro-1-(2-dimethylamino-ethyl)-4-fluoro-1H-indazol-3-yl]-5H-pyrrolo[2,3-b]pyrazine-7-carboxylic acid isopropylamide], the figures for the IC50 in test [1] and in test [2] were 186 nM and 13.3 nM, respectively.
